Patent US20060229239A9, “Novel curcuminoid-factor VIIa constructs as suppressors of tumor growth and angiogenesis” (priority 2002, published 2006)
Marks after values point to notes of the source that are not given here.

Experiments:
HUVECs [1] = test: Neutral Red viability assay, HUVECs; format: cell-based, human; details: 24 hrs
Experimental: (§1) HUVECs, MS-1 cells and SVR cells were cultured to confluence and agents were incubated for 24 hrs. Cell viability was determined by Neutral Red assays. Among synthetic curcumin analogs, A279L, A279U and EF-15 were not cytotoxic at 20 μM. MS-I cells were murine vascular endothelial cells which were immortalized by transfection of SV40 large T antigen but are non-maligant. However, when MS-1 cells were transfected with a ras mutant gene, cells were transformed to become malignant angiosarcoma cells, (SVR cells).

MS-1 cells = test: Neutral Red viability assay, MS-1 cells; format: cell-based, murine; details: 24 hrs
Experimental: as §1

SVR cells = test: Neutral Red viability assay, SVR cells; format: cell-based, murine; details: 24 hrs
Experimental: as §1

MDA-MB-231 = test: Neutral Red (NR) viability test, human breast cancer MDA-MB-231; format: cell-based; details: Mean ± S.E.
Experimental: (§2) The Neutral Red (NR) dye viability assay, instead of the Sulforhodamine B (SRB) assay, was used. In the NR viability assay, NR dye is taken up only by viable cells, while in the SRB viability assay, viable cells are fixed by trichloracetic acid (TCA) on the plate (thus, cells are killed), and the fixed cells are stained by SRB dye.
(§3) At the termination of culture, medium was removed and 200 μl of fresh, warm medium containing 50 μg of NR/ml was added to each well in a 96-well plate. Cells were incubated at 37° for 30 mins, followed by two washes with 200 μl of PBS. The NR taken up by cells was dissolved by adding 200 μl of 0.5N HCI containing 35% ethanol. The amount of the dye in each well was read at 570 nm by an ELISA plate reader.

MCF10 = test: NR viability test, MCF10 normal human breast luminal ductal cell line (no tissue factor); format: cell-based; details: Normal Breast Cells (MCF10), Mean ± S.D.
Experimental: as §2, §3

normal human melanocytes = test: NR viability test, normal human melanocytes (no tissue factor); format: cell-based; details: Mean ± S.D.
Experimental: as §2, §3

tumor cells = test: NCI screening system, tumor cells; format: cell-based
Experimental: Curcumin, EF24 and cisplatin were tested against tumor cells in the NCI screening system. Curcuminoids were also added to transformed breast cancer cells and the mean growth inhibitory concentrations determined, as shown in FIG. 5.

RPMI-7951 = test: Neutral Red (NR) viability test, human melanoma RPMI-7951; format: cell-based; details: Mean ± S.E.
Experimental: as §2, §3

[2] = system: cells with or without tissue factor on the cell surface; test: Cell killing in relation to tissue factor expression on the cell surface (summary); format: cell-based
Source text: One aspect of the present invention provides novel compositions comprising cytotoxic compounds such as synthetic antitumor and anti-angiogenesis curcumin analogs (curcuminoids) linked to a protein delivery vehicle that can deliver the cytotoxic compoun specifically to cancer cells and vascular endothelial cells having surface-bound tissue factor. Novel compositions of the present invention can comprise a curcuminoid covalently linked to a tether which may be, but is not limited to, a dicarboxylic acid such as succinate. The tether is covalently linked to a N-terminal amino acid of a peptidyl linker such as phenylalanine-phenylalanine-arginine, the C-terminal amino acid of which comprises a methylketone. […] Preferably, the curcuminoid-tether-linker will have bonded to an amino acid of the serine protease domain of the fVIIa, thereby blocking the procoagulating activity of the novel therapeutic composition. The present invention also provides methods of synthesis of cytotoxic compound-protein conjugates. The compositions and methods of the present invention may increase the efficacy of the cytotoxic agents and decrease their side effects by delivering the agents to specific target cells. […] The conjugate EF24-FFRck-fVIIa construct of the present invention kills cancer cell lines and vascular endothelial cells, such as HUVECs, that express tissue factor on the cell surface.

DU145 = test: SRB viability test, DU145 human prostate cancer cell line expressing tissue factor; format: cell-based; details: for O.D. 570 nm, SRB Viability Test: 48 hrs, Mean S.D.
Experimental: DU145 cells were plated with 2×10^4 cells/100 μl/well in a 96 well plate and cultured overnight. The cells were cultured for 48 hrs. Cultures was terminated by adding 40% TCA to a final concentration of 10%. Cells were fixed in TCA at 4° for 1 hr, washed with tap water 5 times and air dried. Sulforhodamine B (SRB) solution (100 μl) at 0.4% (w/v) in 1% acetic acid was added to each well, and the cells were incubated for 10 mins at room temperature. After staining, unbound dye was removed by washing five times with 1% acetic acid and air dried. […] Assays were performed in triplicate or quadruplicate. An asterisk (*) indicates p<0.0001 by the Student t-test (two-tailed probability). The concentration of EF24-FFRck-fVIIa was estimated based on protein concentration.

HUVECs [3] = test: SRB viability test (NCI method), normal HUVECs not expressing tissue factor; format: cell-based, human; details: Mean ± S.D.
Cell cytotoxicity assays = format: cell-based
Experimental: Of several compounds examined, the succinic acid derivative aa (86% yield) was suitable since it retained 50% of the activity of EF24 in cell cytotoxicity assays. To synthesize the succinyl derivative aa of EF24, to a solution of EF24 (0.16 g, 0.5 mmol) in anhydrous CH2Cl2 (6 ml) was added succinic anhydride (0.057 g, 0.5 mmol) and Et3N (101 mg, 1 mmol). The mixture was stirred at room temperature for 3 hrs, diluted with CH2Cl2, washed twice with saturated NaHCO3 (2×10 ml) and brine, dried over anhydrous Na2SO4, and relieved of solvent by evaporation. The resulting solid was purified by flash chromatography using benzene/acetone/acetic acid (27:10:0.5) as the eluant to obtain the yellow solid aa ([…], mp 145° C., 86% yield). [drawing 15]

SMILES	O.D. 570 nm, NR Viability Test (MDA-MB-231; MDA231, 1 pM)	O.D. 570 nm, NR Viability Test (MDA-MB-231; MDA231, 2 pM)	O.D 570 nm, NR Viability Test (MCF10; 0.8 pM)	O.D 570 nm, NR Viability Test (MCF10; 4 pM)	O.D 570 nm, NR Viability Test (normal human melanocytes; 0.8 pM)	O.D 570 nm, NR Viability Test (normal human melanocytes; 4 pM)	O.D. 570 nm, NR Viability Test (RPMI-7951; RPM17951, 1 pM)	O.D. 570 nm, NR Viability Test (RPMI-7951; RPM17951, 2 pM)	killing of cancer cells and normal cells regardless of tissue factor expression [2]	O.D. 570 nm, SRB Viability Test (DU145; DU145, 0.8 pM)	O.D. 570 nm, SRB Viability Test (DU145; DU145, 8 pM)	O.D. 490 nm, SRB Viability Test (HUVECs [3]; 0.8 pM)	O.D. 490 nm, SRB Viability Test (HUVECs [3]; 8 pM)	further results
COc1cc(/C=C/C(=O)CC(=O)/C=C/c2ccc(O)c(OC)c2)ccc1O [Curcumin, diferuloylmethane]														Neutral Red Viability Assay (% of Control) (HUVECs [1]; 1 μM): 103 % of Control; Neutral Red Viability Assay (% of Control) (HUVECs [1]; 20 μM): 21 % of Control; Neutral Red Viability Assay (% of Control) (MS-1 cells; 1 μM): 90 % of Control; Neutral Red Viability Assay (% of Control) (MS-1 cells; 20 μM): 3 % of Control; Neutral Red Viability Assay (% of Control) (SVR cells; 1 μM): 88 % of Control; Neutral Red Viability Assay (% of Control) (SVR cells; 20 μM): 4 % of Control
O=C1/C(=C/c2ccccc2F)CNC/C1=C\c1ccccc1F [EF24, 3,5-Bis-(2-fluorobenzylidene)-piperidin-4-one]	0.172 ± 0.020	0.109 ± 0.014	0.104 ± 0.018	0.091 ± 0.007	0.255 ± 0.009	0.119 ± 0.009	0.220 ± 0.023	0.119 ± 0.018	indiscriminatingly kills	0.391 ± 0.041	0.053 ± 0.025*	0.136 ± 0.010	0.038 ± 0.010	potency relative to cisplatin (tumor cells): about 10 times; effectiveness against tumor cells compared with cisplatin or curcumin (tumor cells; NCI screening system, FIG. 4): significantly more effective
N=C(N)NCCC[C@H](NC(=O)[C@H](Cc1ccccc1)NC(=O)[C@@H](Cc1ccccc1)NC(=O)CCC(=O)N1C/C(=C\c2ccccc2F)C(=O)/C(=C/c2ccccc2F)C1)C(=O)CCl [EF24-FFRck]	0.191 ± 0.013	0.171 ± 0.009	0.101 ± 0.013	0.113 ± 0.003	0.252 ± 0.007	0.249 ± 0.015	0.253 ± 0.018	0.247 ± 0.020	does not kill	0.389 ± 0.021	0.383 ± 0.027	0.152 ± 0.026	0.160 ± 0.038	cell killing (DU145; EF24-FFRck alone, Table 2): does not kill any cells
O=C(O)CCC(=O)N1C/C(=C\c2ccccc2F)C(=O)/C(=C/c2ccccc2F)C1 [aa]														activity retained relative to EF24 in cell cytotoxicity assays (Cell cytotoxicity assays): 50%
